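Cultured in 96-well plates, cells were exposed to test compound for 48 hours across five concentrations. At the GI50, growth is halved.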 Activity calls are given as the source filed them. No stated cut-off is given here; in the data, active = GI50 up to about 1.1 µM and inactive = higher.
Columns and labels:
Assay in all cases: growth of human tumour cells (NCI), 48 h
SN12C = system: SN12C
UACC-62 = system: UACC-62
HCT-116 = system: HCT-116
OVCAR-5 = system: OVCAR-5
SK-MEL-28 = system: SK-MEL-28
A498 = system: A498
OVCAR-8 = system: OVCAR-8
A549 = system: A549
NCI-H522 = system: NCI-H522
SW-620 = system: SW-620
HT-29 = system: HT-29
COLO 205 = system: COLO 205
CAKI-1 = system: CAKI-1

Measured: GI50

CC(C)N(C(=O)C12C3C4C5(C(=O)O)C(C1C35I)C42C(=O)O)C(C)C (configuration not stated)
inactive: SN12C > 100 µM | UACC-62 > 100 µM | HCT-116 > 100 µM | OVCAR-5 > 100 µM | SK-MEL-28 > 100 µM | A498 > 100 µM | OVCAR-8 > 100 µM | A549 > 100 µM | NCI-H522 > 100 µM | SW-620 > 100 µM | HT-29 > 100 µM | COLO 205 > 100 µM

COC1=NCc2ccccc2-c2ccccc21
inactive: SN12C > 100 µM | UACC-62 > 100 µM | HCT-116 > 100 µM | SK-MEL-28 > 100 µM | OVCAR-8 > 100 µM | A549 > 100 µM | NCI-H522 > 100 µM | HT-29 > 100 µM

Cc1ccc(-n2c3nc(=O)n(C)c(=O)c-3nc3ccccc32)c(C)c1
inactive: SN12C 10.9 µM | UACC-62 2.33 µM | HCT-116 11.8 µM | OVCAR-5 18.7 µM | CAKI-1 27.6 µM | A498 > 10 µM | OVCAR-8 8.18 µM | A549 4.74 µM | NCI-H522 15.4 µM | SW-620 5.57 µM | HT-29 3.28 µM | COLO 205 3.46 µM

O=C(n1c2ccccc2c2nnc(S)nc21)C(F)(F)F
inactive: SN12C > 100 µM | UACC-62 > 100 µM | HCT-116 > 100 µM | OVCAR-5 > 100 µM | CAKI-1 > 100 µM | SK-MEL-28 60.5 µM | OVCAR-8 > 100 µM | A549 > 100 µM | NCI-H522 > 100 µM | SW-620 > 100 µM | HT-29 > 100 µM | COLO 205 > 100 µM

Clc1ccc(C(n2cc(Br)cn2)n2cc(Br)cn2)cc1
inactive: SN12C 16.8 µM | UACC-62 13.4 µM | OVCAR-5 16 µM | CAKI-1 11.1 µM | SK-MEL-28 17.8 µM | A498 18.3 µM | OVCAR-8 18.5 µM | A549 14.7 µM | NCI-H522 13.3 µM | SW-620 17 µM | HT-29 13.2 µM | COLO 205 16.1 µM

CN(C)NC(=O)NC12CC3CC(CC(C3)C1)C2
inactive: SN12C > 100 µM | UACC-62 > 100 µM | HCT-116 > 100 µM | OVCAR-5 > 100 µM | CAKI-1 > 100 µM | SK-MEL-28 > 10 µM | A498 > 100 µM | OVCAR-8 > 100 µM | A549 > 100 µM | NCI-H522 > 100 µM | SW-620 > 100 µM | HT-29 > 100 µM | COLO 205 > 100 µM

Cc1cc2c(cn1)C(=O)OCC2
inactive: SN12C > 100 µM | UACC-62 > 100 µM | HCT-116 > 100 µM | OVCAR-5 > 100 µM | SK-MEL-28 > 100 µM | A498 > 100 µM | OVCAR-8 > 100 µM | A549 > 100 µM | SW-620 > 100 µM | HT-29 > 100 µM

COc1cc2c(cc1OC)C1Cc3ccc(OC)c(OC)c3C[N+]1([O-])CC2 (configuration not stated)
inactive: SN12C > 100 µM | HCT-116 > 100 µM | OVCAR-5 > 100 µM | CAKI-1 > 100 µM | SK-MEL-28 > 100 µM | A498 > 100 µM | OVCAR-8 > 100 µM | A549 > 100 µM | NCI-H522 > 100 µM | SW-620 > 100 µM | HT-29 > 100 µM

COC(=O)C1=C(c2cc(OC)c(OC)c(OC)c2)OC(c2ccc(OC)c(OC)c2)C1 (configuration not stated)
inactive: SN12C 51.6 µM | UACC-62 71.4 µM | HCT-116 43.8 µM | OVCAR-5 > 100 µM | CAKI-1 > 100 µM | SK-MEL-28 79.8 µM | A498 22.6 µM | OVCAR-8 47.9 µM | A549 46.8 µM | SW-620 33.5 µM | HT-29 38.7 µM | COLO 205 19.1 µM

CC1(C2CCC3(C)OC3C2)CO1 (configuration not stated)
inactive: SN12C > 100 µM | UACC-62 > 100 µM | HCT-116 > 100 µM | OVCAR-5 > 100 µM | CAKI-1 > 100 µM | SK-MEL-28 > 100 µM | OVCAR-8 > 100 µM | A549 > 100 µM | NCI-H522 > 100 µM | SW-620 > 100 µM | HT-29 > 100 µM | COLO 205 > 100 µM

COC(=O)c1nn(C(=N)c2ccc(Cl)cc2)c2c1CCCCC2
inactive: SN12C > 100 µM | UACC-62 > 100 µM | HCT-116 > 100 µM | OVCAR-5 > 100 µM | CAKI-1 > 100 µM | SK-MEL-28 > 100 µM | A498 > 100 µM | A549 > 100 µM | NCI-H522 > 100 µM | SW-620 > 100 µM | HT-29 > 100 µM | COLO 205 > 100 µM

COC(=O)[C@H]1C=C[C@@H](C)n2c(=O)c3cc4ccccc4cc3c(=O)n21
inactive: SN12C > 100 µM | HCT-116 > 100 µM | OVCAR-5 > 100 µM | CAKI-1 > 100 µM | SK-MEL-28 > 100 µM | A498 > 100 µM | OVCAR-8 > 100 µM | A549 > 100 µM | NCI-H522 > 100 µM | SW-620 > 100 µM | COLO 205 > 100 µM

Reference: ChEMBL document CHEMBL1201862, “PubChem BioAssay data set” (2004)
